From PMC10350924, “Design, Synthesis, and Pharmacological Characterization of a Potent Soluble Epoxide Hydrolase Inhibitor for the Treatment of Acute Pancreatitis” (Journal of Medicinal Chemistry, 2023)

Tests used:
[1] = molecular target: T1, 5-LOX (Homo sapiens, UniProt P09917); assay: 5-LOX product formation in human activated PMNL (A23187); type: cell-based; parameters: Freshly isolated PMNL (5 × 10^6) suspended in PBS pH 7.4 with 1 mg/mL glucose were preincubated with the test compounds; endogenous in cells; host or cells: human PMNL from donor blood; remaining activity: dose or concentration left out as unconfirmed; details: for remaining activity at 10 µM / IC50: human activated PMNL; for remaining activity at 10 µM: read-out: 5-LOX residual activity in PMNL (%) at 10 μM; for remaining activity: PMNL, read-out: 5-LO residual activity in PMNL (%)
T1 sequence (P09917 1-674): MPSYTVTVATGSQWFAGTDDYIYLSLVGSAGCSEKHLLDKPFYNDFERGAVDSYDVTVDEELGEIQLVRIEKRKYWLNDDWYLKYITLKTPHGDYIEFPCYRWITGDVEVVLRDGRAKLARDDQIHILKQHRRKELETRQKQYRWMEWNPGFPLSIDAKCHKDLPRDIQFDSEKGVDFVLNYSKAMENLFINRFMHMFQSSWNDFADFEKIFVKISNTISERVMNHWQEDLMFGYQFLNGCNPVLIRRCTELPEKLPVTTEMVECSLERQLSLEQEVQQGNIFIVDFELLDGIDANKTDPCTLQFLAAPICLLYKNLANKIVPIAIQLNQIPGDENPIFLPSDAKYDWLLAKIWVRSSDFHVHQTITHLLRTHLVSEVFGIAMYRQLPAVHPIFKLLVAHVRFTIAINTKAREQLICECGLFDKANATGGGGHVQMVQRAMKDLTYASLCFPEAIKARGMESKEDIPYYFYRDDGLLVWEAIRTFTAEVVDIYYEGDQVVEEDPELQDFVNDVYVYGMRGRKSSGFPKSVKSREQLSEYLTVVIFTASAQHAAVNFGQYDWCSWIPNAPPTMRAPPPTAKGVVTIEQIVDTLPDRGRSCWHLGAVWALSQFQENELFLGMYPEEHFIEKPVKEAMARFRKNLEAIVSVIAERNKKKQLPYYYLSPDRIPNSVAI
Description: Human PMNL were freshly isolated from leukocyte concentrates that were obtained from the Institute for Transfusion Medicine of the University Hospital Jena (Germany). […] These volunteers regularly donated blood (every 8–12 weeks) and were physically inspected by a clinician. […] Leukocytes were concentrated by centrifugation (4000g/20 min/20 °C) of freshly withdrawn blood. […] PMNL were obtained from the cell pellet. […] The reaction was stopped with an equal volume of methanol containing PGB1 (200 ng) as internal standard. Major 5-LOX products (all-trans isomers of LTB and 5-HETE, and additionally LTB4) were extracted and analyzed by RP-HPLC as described for the determination of cell-free 5-LOX activity.

[2] = molecular target: T1, 5-LOX; assay: Cell-free 5-LOX activity assay; type: biochemical; parameters: made in house; host or cells: Escherichia coli Bl21 (DE3); details: for IC50: human isolated 5-LOX
Description: Human recombinant 5-LOX was expressed in Escherichia coli Bl21 (DE3) cells that were transformed with the plasmid pT3-5LO (wt 5-LOX) and purified on an adenosine triphosphate (ATP)-agarose column by affinity chromatography.[40],[41] In a first step, E. coli was lysed in 50 mM triethanolamine/HCl pH 8.0 with ethylenediamine tetraacetic acid (EDTA) (5 mM), soybean trypsin inhibitor (60 μg/mL), phenylmethanesulfonyl fluoride (1 mM), dithiothreitol (1 mM), and lysozyme (1 mg/mL) and sonicated 3 times for 15 s. The homogenate was centrifuged at 40,000g for 20 min at 4 °C. The supernatant was transferred to an ATP-agarose column (Sigma-Aldrich, Deisenhofen, Germany), which was sequentially washed with phosphate-buffered saline (PBS) pH 7.4, 1 mM EDTA, 50 mM phosphate buffer pH 7.4, 0.5 M NaCl, 1 mM EDTA, and finally 50 mM phosphate buffer pH 7.4 plus 1 mM EDTA. The enzyme was eluted with 50 mM phosphate buffer pH 7.4, 1 mM EDTA, and 20 mM ATP.
5-LOX product formation was started by the addition of 20 μM arachidonic acid (Sigma-Aldrich) and CaCl2 (2 mM) and stopped by the addition of an equal volume of ice-cold methanol containing PGB1 (200 ng) as internal standard after 10 min at 37 °C.

[3] = molecular target: T2, Human recombinant sEH (Homo sapiens, UniProt P34913); assay: Cell-free sEH activity (PHOME fluorescence); type: biochemical; details: human isolated sEH
T2 construct: made in house; host or cells: Sf9 insect cells (recombinant baculovirus)
T2 sequence (P34913 1-555): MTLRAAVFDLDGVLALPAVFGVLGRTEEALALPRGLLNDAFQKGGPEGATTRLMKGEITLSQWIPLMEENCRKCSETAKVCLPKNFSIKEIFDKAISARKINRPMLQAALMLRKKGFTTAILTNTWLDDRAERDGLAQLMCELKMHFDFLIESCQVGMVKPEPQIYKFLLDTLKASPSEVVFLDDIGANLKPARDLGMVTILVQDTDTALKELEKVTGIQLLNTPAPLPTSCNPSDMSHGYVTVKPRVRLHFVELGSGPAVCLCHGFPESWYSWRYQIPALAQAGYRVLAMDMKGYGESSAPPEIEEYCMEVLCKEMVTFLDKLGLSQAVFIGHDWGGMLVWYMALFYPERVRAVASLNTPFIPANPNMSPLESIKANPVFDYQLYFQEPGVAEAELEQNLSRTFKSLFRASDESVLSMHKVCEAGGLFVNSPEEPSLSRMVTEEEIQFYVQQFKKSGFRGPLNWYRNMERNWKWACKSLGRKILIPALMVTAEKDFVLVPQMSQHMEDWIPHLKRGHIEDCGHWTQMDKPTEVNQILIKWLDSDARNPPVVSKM
Description: Human recombinant sEH was expressed in Sf9 insect cells and purified by affinity chromatography. […] Elution with 4-fluorochalcone oxide in PBS pH 7.4 with 1 mM dithiothreitol and 1 mM EDTA yielded sEH, which was dialyzed and concentrated. Purified sEH (60 ng) in 25 mM Tris HCl pH 7 with 0.1 mg/mL bovine serum albumin (BSA) was preincubated with the vehicle (DMSO) or test compounds for 1 min at room temperature. The sEH substrate PHOME (20 μM, Cayman Chemicals) was added to start the enzymatic reaction, which was stopped after 60 min in the dark by the addition of ZnSO4 (200 mM).

| remaining activity at 10 µM [1] | remaining activity [1] | IC50 [1] | IC50 [2] | IC50 [3] | inhibition of 5-LOX activity, times lower than 6 ([2]; isolated 5-LOX, relative to compound 6) | Structure (SMILES) |
| --- | --- | --- | --- | --- | --- | --- |
| – | – | – | > 1000 nM | 288 ± 220 nM | – | Fc1ccc(CN2CCc3cc(NC(=S)NCC45C[C@H]6C[C@@H](C4)C[C@@H](C5)C6)ccc32)cc1 [Compound 10, 1-(((3R,5R,7R)-Adamantan-1-yl)methyl)-3-(1-(4-fluorobenzyl)indolin-5-yl)thiourea] |
| 2.1 ± 1.1% | 2.1 ± 1.1% | 4400 ± 420 nM | > 1000 nM | 15.1 ± 7.7 nM | – | O=C(NCC12C[C@H]3C[C@@H](C1)C[C@@H](C2)C3)Nc1ccc2c(ccn2Cc2ccc(C(=O)O)cc2)c1 [Compound 37, 4-((5-(3-(((3R,5R,7R)-Adamantan-1-yl)methyl)ureido)-1H-indol-1-yl)methyl)benzoic Acid] |
| 65.1 ± 9.4% | 65.1 ± 9.4% | – | > 1000 nM | 11.4 ± 3.6 nM | – | COC(=O)c1ccc(Cn2ccc3cc(NC(=O)NCC45C[C@H]6C[C@@H](C4)C[C@@H](C5)C6)ccc32)cc1 [Compound 29, Methyl 4-((5-(3-(((3R,5R,7R)-Adamantan-1-yl)methyl)ureido)-1H-indol-1-yl)methyl)benzoate] |
| 92.6 ± 4% | 92.6 ± 4% | – | > 1000 nM | 20 ± 3.8 nM | – | O=C(NCC12C[C@H]3C[C@@H](C1)C[C@@H](C2)C3)Nc1ccc2c(c1)c1ccccc1n2Cc1ccc(F)cc1 [Compound 48, 1-(((3R,5R,7R)-Adamantan-1-yl)methyl)-3-(9-(4-fluorobenzyl)-9H-carbazol-3-yl)urea] |
| 79.7 ± 2.8% | 73.7 ± 2.8% | – | 78 ± 53 nM | 11.1 ± 6 nM | – | O=C(NCC12C[C@H]3C[C@@H](C1)C[C@@H](C2)C3)Nc1ccc2c(c1)CCN2Cc1ccc(F)cc1 [Compound 5, 1-(((3R,5R,7R)-Adamantan-1-yl)methyl)-3-(1-(4-fluorobenzyl)indolin-5-yl)urea] |

Further lines, the compound ahead of its results:

| Structure (SMILES) | remaining activity at 10 µM [1] | remaining activity [1] | IC50 [1] | IC50 [2] | IC50 [3] | inhibition of 5-LOX activity, times lower than 6 ([2]; isolated 5-LOX, relative to compound 6) |
| --- | --- | --- | --- | --- | --- | --- |
| O=C(O)CCCn1ccc2cc(NC(=O)NCC34C[C@H]5C[C@@H](C3)C[C@@H](C4)C5)ccc21 [Compound 38, 4-(5-(3-(((3R,5R,7R)-Adamantan-1-yl)methyl)ureido)-1H-indol-1-yl)butanoic Acid] | 41.2 ± 7.8% | 41.2 ± 7.8% | 8150 ± 1860 nM | > 1000 nM | 53.3 ± 15.9 nM | – |
| CC1(C)C2CC[C@@]1(CS(=O)(=O)Nc1ccc3c(c1)CCN3Cc1ccc(F)cc1)C(=O)C2 [Compound 4, 1-((1S)-7,7-Dimethyl-2-oxobicyclo[2.2.1]heptan-1-yl)-N-(1-(4-fluorobenzyl)indolin-5-yl)methanesulfonamide] | 2.5 ± 2.5% | 2.5 ± 2.5% | 2560 nM | 171 ± 66 nM | 1800 ± 460 nM | around 2.5 times |
| COC(=O)CCCn1ccc2cc(NC(=O)NCC34C[C@H]5C[C@@H](C3)C[C@@H](C4)C5)ccc21 [Compound 32, Methyl 4-(5-(3-(((3R,5R,7R)-Adamantan-1-yl)methyl)ureido)-1H-indol-1-yl)butanoate] | 30.1 ± 4.8% | 30.1 ± 4.8% | 6830 ± 840 nM | > 1000 nM | 21.3 ± 11.9 nM | – |
| CN1CCCN(CCNC(=O)Nc2ccc3c(c2)CCN3Cc2ccc(F)cc2)CC1 [Compound 8, 1-(1-(4-Fluorobenzyl)indolin-5-yl)-3-(2-(4-methyl-1,4-diazepan-1-yl)ethyl)urea] | 71.1 ± 6.6% | 71.1 ± 6.6% | – | > 1000 nM | > 10000 nM | – |
| O=C(Nc1ccc2c(c1)CCN2Cc1ccc(F)cc1)C12C[C@H]3C[C@@H](C1)C[C@@H](C2)C3 [Compound 3, (3R,5R,7R)-N-(1-(4-Fluorobenzyl)indolin-5-yl)adamantane-1-carboxamide] | 53.2 ± 9.9% | 53.2 ± 9.9% | – | 74 ± 18 nM | 285 ± 31.2 nM | – |
| O=C(NCC12C[C@H]3C[C@@H](C1)C[C@@H](C2)C3)Nc1ccc2c(c1)CCN2Cc1ccc(C(=O)O)cc1 [Compound 14, 4-((5-(3-(((3R,5R,7R)-Adamantan-1-yl)methyl)ureido)indolin-1-yl)methyl)benzoic Acid] | 57.7 ± 9.6% | 57.7 ± 9.6% | – | > 1000 nM | 24.1 ± 4.1 nM | – |
